Data taken from patent US8273768B2, “Iso CA-4 and analogues thereof as potent cytotoxic agents inhibiting tubuline polymerization” (Centre National de la Recherche Scientifique (CNRS), priority 2007, dated 2012).

Legend:
[1] = tested on: human endothelial cells (EAhy926); test: Cytotoxicity on human endothelial cells; assay type: cell-based; details: EAhy926, 1 hour, 3 hours or 6 hours of treatment, dose of 10 nM
Experimental: (§1) Cytotoxicity of compound (I-1) towards human endothelial cells (EAhy926) was evaluated after 1 hour, 3 hours and 6 hours of treatment. The number of living cells was either counted immediately at the end of the treatment (FIG. 3) or 72 hours after stopping the treatment (FIG. 4). It is observed that when the endothelial cells are treated for 72 hours with the compound (I-1), the IC50 is 2 nM.
(§2) The EAhy926 cells (immortalized HUVEC macrovascular endothelial cells) were cultivated in a culture medium “Dulbecco minimal essential medium” (DMEM) containing 4.5 g/L of glucose and supplemented with 10% fetal calf serum, 1% glutamine and a supplement of HAT (100 μM of hypoxanthine, 0.4 μM of aminopterin and 16 μM of thymidine, Invitrogen; Cergy-Pontoise, France). The cells were maintained in the culture at 37° C. in a humid atmosphere containing 5% CO2.
(§3) The cells were sown in 96-well culture plates in an amount of 3,000 cells per well in 50 μL of culture medium. […] At the end of the treatment, the number of cells was evaluated by using the reagent “CellTiter-Blue™” (Promega, Wis., USA) as described earlier. In parallel, after 1 hour, 3 hours or 6 hours of treatment with compound (I-1), the culture medium was removed and replaced with fresh medium for 72 hours and the number of living cells was then measured by using the reagent “CellTiter-Blue™”.

[2] = Cytotoxicity on human endothelial cells; assay type: cell-based; details: human; EAhy926, measured after 72 hours; read-out: IC50, cytotoxic activity on EAhy926 (FIG. 4 legend)
Experimental: as §1, §2, §3

[3] = tested on: human colon tumors LS174T xenografted in Nude mice; test: Antivascular activity in vivo (MRI, Dotarem entry into tumors); details: LS174T xenograft
Experimental: The antivascular effect of the molecule (I-1) was tested on mice bearing human tumors by comparison with the positive control DMXAA, according to the procedure described by Beauregard et al. (NMR Biomed., 2002, 15:99-105).
Thus, CD-1 Nude female mice were xenografted by subcutaneous injection of human colon tumoral cells (LS174T). The mice bearing tumors were then treated with 0.9% NaCl (carrier, 10 mL/kg), DMXAA (27.5 mg/kg) via an intraperitoneal route (IP) or the molecule (I-1) (45 mg/kg) via an intravenous route (IV). Three hours after administration, the mice were treated with the Dotarem® contrast agent intravenously (IV). The penetration of the contrast agent into the tumors was followed in real time by magnetic resonance imaging (MRI) and is expressed by an enhancement of the intensity of the signal in the tumors. Densitometric analysis of the acquired images allows determination of the maximum enhancement (Rmax) as well as the slope P0 corresponding to the entry rate of Dotarem® into the tumors.

MDA-MB231 cells = test: Study of the cell cycle (flow cytometry); assay type: cell-based, human; details: MDA-MB231, 24 hours, 5 nM
Experimental: (§4) The K562 and MDA-MB231 cells are sown in 6-well culture plates with 300,000 cells per well in their respective media as described above. After 24 hours of culture, the compound (I-1) was added in each of the wells at different concentrations. After 24 hours of incubation, the cells are collected individually in 15 mL tubes and then centrifuged. The cells are then washed twice in cold PBS and then re-suspended in 1 mL of PBS, fixed by adding 2 mL of cold absolute ethanol and placed at 4° C. for 1 hour. After centrifugation, the cells are washed twice in PBS and then the cell pellet is taken up in 100 μL of Triton X100 at 1%. After 30 minutes of incubation at room temperature, 50 μL of RNase A boiled beforehand (1 mg/mL) and 500 μL of propidium iodide (50 μg/mL) are added into each tube and incubated in the dark at room temperature for 30 minutes. The distribution of the number of cells in each of the phases of the cell cycle is then determined by flow cytometry with a cytometer of the FC500 type (Beckman-Coulter, France).
(§5) This effect is significant after 24 hours of exposure of the cells to the compound (I-1) used at a concentration of 5 nM (FIG. 1).

K562 cells = test: Study of the cell cycle (flow cytometry); assay type: cell-based, human; details: K562, 24 hours, 5 nM
Experimental: as §4, §5

[4] = tested on: human endothelial cells (EAhy926); test: Formation of vascular tubes on Matrigel; assay type: cell-based; details: EAhy926, treatment of 3 hours, 10 nM
Experimental: In order to know whether the compound (I-1) perturbs the spatial organization of endothelial cells in structures similar to vascular capillaries, human endothelial cells (EAhy926) were treated immediately after cultivation on Matrigel® or after 24 hours of cultivation, in order to allow them to form vascular tubes.
In order to evaluate the antivascular activity of the compound (I-1), the EAhy926 cells were cultivated in 96-well culture plates covered beforehand with an extract of extracellular matrix (Matrigel™, BD Biosciences, Le Pont-de-Claix, France) in which they spontaneously form capillary tubes.
First of all, we measured the capacity of the compound (I-1) of inhibiting the formation of the capillary network. Matrigel™ is deposited in 96-well culture plates in an amount of 70 μL/well and left to incubate at 37° C. for 45 minutes in order to allow its polymerization. 15,000 cells suspended in 150 μL of culture medium are sown per well in each of the wells containing Matrigel™ in the absence or in the presence of different concentrations of the compound (I-1), with 3 wells per concentration. After 1 hour, 3 hours and 6 hours of incubation at 37° C., the cells are observed and photographed by means of an optical microscope of the TE2000 type (Nikon, France), equipped with a camera. […]

[5] = 3 hours after administration, DMXAA 27.5 mg/kg IP, (I-1) 45 mg/kg IV

For `C=C(c1ccc(OC)c(O)c1)c1cc(OC)c(OC)c(OC)c1` [(I-1)], the “Cytotoxic activity on endothelial cells, short treatment” value [1] was “does not exhibit any cytotoxic activity”, the IC50 at 72 h [2] was 2 nM and the “Antivascular effect in vivo” value ([3]; 45 mg/kg IV) was “has an antivascular effect”. For the same compound, the “Average of P0” value [3, 5] was 1.53±0.82 arbitrary unit, the “Average of Rmax” value [3, 5] was 67.56±33.10 % of the NaCl control and the “Effect on cell cycle” value (MDA-MB231 cells) was “blocks cell division in the G2/M phase”. The “Effect on cell cycle” value (K562 cells) was “blocks cell division in the G2/M phase” and the “Number of vascular tubes on Matrigel” value [4] was “very significant decrease in the number of vascular tubes”.
